According to ChEMBL document CHEMBL4602687, “Dual Binding to Orthosteric and Allosteric Sites Enhances the Anticancer Activity of a TRAP1-Targeting Drug” (J Med Chem, 2020):
Numbering of substitutions follows the chain as printed. Activity calls are given as the source filed them. The calls are words filed in the database; no cut-off is given here.

How the values were obtained:
NCI-H460 [1] = test: Antitumor activity against human NCI-H460 cells xenografted in nude mouse assessed as tumor growth inhibition at 5 mg/kg, ip administered daily; type: functional, organism-based
NCI-H460 [2] = test: Antitumor activity against human NCI-H460 cells xenografted in nude mouse assessed as reduction in tumor cell proliferation at 5 mg/kg, ip administered daily by Ki67 staining based immunohistochemistry analysis; type: functional, organism-based
PC-3 = test: Cytotoxicity against human PC3 cells assessed as reduction in cell viability up to 3 uM measured after 24 hrs by MTT assay; type: functional, cell-based
[3] = target: T1, Heat shock protein 75 kDa, mitochondrial (Homo sapiens) (UniProt Q12931); test: Stimulation of recombinant wild-type human TRAP1 ATPase activity expressed in Escherichia coli BL21 (DE3) at 2 to 5 uM preincubated for 0.5 hrs followed by 0.2 mM ATP addition and measured after 3 hrs by PiColorLock Gold reagent based colorimetric assay relative to control
T1 sequence (whole entry): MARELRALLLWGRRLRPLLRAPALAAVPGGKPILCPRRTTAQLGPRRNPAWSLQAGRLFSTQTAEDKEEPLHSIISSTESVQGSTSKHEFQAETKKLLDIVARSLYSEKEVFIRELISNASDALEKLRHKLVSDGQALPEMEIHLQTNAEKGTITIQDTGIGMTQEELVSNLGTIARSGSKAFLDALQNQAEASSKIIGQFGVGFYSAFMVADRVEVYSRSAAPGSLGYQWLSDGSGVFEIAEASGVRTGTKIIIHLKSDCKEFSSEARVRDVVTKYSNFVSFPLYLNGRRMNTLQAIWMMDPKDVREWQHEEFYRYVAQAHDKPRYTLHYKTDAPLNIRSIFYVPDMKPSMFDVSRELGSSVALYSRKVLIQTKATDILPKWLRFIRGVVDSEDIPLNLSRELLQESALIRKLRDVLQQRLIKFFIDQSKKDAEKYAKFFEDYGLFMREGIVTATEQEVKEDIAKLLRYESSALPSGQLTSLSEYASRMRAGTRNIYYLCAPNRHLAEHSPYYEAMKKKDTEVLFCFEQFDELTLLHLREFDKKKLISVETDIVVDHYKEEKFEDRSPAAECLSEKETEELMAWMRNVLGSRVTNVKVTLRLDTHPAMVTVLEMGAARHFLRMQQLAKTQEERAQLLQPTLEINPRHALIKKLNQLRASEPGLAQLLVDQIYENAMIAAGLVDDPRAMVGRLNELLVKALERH

[4] = target: T1, Heat shock protein 75 kDa, mitochondrial (Homo sapiens); test: Inhibition of TRAP1 in human PC3 cells assessed as reduction in SIRT3 expression at 5 uM measured after 2 to 12 hrs by Western blot analysis; type: cell-based; details: PC-3
[5] = tested on: T2, Heat shock protein 75 kDa, mitochondrial (Homo sapiens), Q12931 [R114E,R402Q]; test: Stimulation of recombinant […] human TRAP1 R114E/R402Q mutant ATPase activity expressed in Escherichia coli BL21 (DE3) up to 20 uM preincubated for 0.5 hrs followed by ATP addition and measured after 3 hrs by PiColorLock Gold reagent based colorimetric assay
T2 sequence (whole entry): T1 sequence (whole entry) with R114E, R402Q

Homo sapiens = species: Homo sapiens; test: Inhibition of recombinant full-length human TRAP1 W383/W4F mutant expressed in Escherichia coli BL21 (DE3) assessed as intrinsic fluorescence quenching of tryptophan residues at 10 uM measured after 1 hr by fluorescence spectrophotometric method
[6] = tested on: T3, Heat shock protein 75 kDa, mitochondrial (Homo sapiens), Q12931 [R402Q]; test: Stimulation of recombinant […] human TRAP1 R402Q mutant ATPase activity expressed in Escherichia coli BL21 (DE3) up to 20 uM preincubated for 0.5 hrs followed by ATP addition and measured after 3 hrs by PiColorLock Gold reagent based colorimetric assay
T3 sequence (whole entry): T1 sequence (whole entry) with R402Q

Mus musculus = test: In vivo inhibition of TRAP1 in nude mouse xenografted with human NCI-H460 cells assessed as increase in AMPK phosphorylation at 5 mg/kg, ip administered daily by Western blot analysis; type: functional, organism-based
LN-229 = test: Cytotoxicity against human LN229 cells assessed as reduction in cell viability up to 3 uM measured after 24 hrs by MTT assay; type: functional, cell-based

- fold change (FC) [3]: 1.2
- inhibition [4]: Active
- Activity [5]: inactive
- inhibition (Homo sapiens): Active
- Activity [6]: Active
SMILES: Nc1ncnc2c1nc(Sc1cc3c(cc1I)OCO3)n2CCCCCCCCCC[P+](c1ccccc1)(c1ccccc1)c1ccccc1
- TGI (NCI-H460 [1]): Active
- Activity (NCI-H460 [2]): Active
- Activity (PC-3): Active
- inhibition (Mus musculus): Active
- Activity (LN-229): Active
